In patent US8946301B2, “Targeting of T-lymphocytes to treat amyotrophic lateral sclerosis” (ALS Therapy Development Institute, priority 2011, dated 2015):
“Also recorded” adds a separate entry of the source. Like-named read-outs stand apart in the source and are kept apart here.

Columns and labels:
[1] = Pharmacokinetic profile of fingolimod in plasma and spinal cord of SOD1 mice; format: in vivo; settings: G93A-SOD1 transgenic, mouse, male SOD1 mice, single IP bolus 6.7 mg/kg
Protocol: FIG. 1A is a chart showing the plasma pharmacokinetic profile for fingolimod in male SOD1 mice after a single IP bolus 6.7 mg/kg.
FIG. 1B is a chart showing the spinal cord pharmacokinetic profile for fingolimod in male SOD1 mice after a single IP bolus 6.7 mg/kg.
The pharmacokinetic study provided reagent distribution and elimination parameters in order to guide future in vivo studies. […] Because of the longer than usual half-life of fingolimod, the time points for PK harvest extended beyond the typical 9 point small molecule PK study executed at ALS Therapy Development Institute (ALSTDI, Cambridge, Mass.). Time points included 0, 0.083 hours, 0.25 hours, 0.5 hours, 0.75 hours, 1 hour, 2 hours, 4 hours, 6 hours, 8 hours, 12 hours, 24 hours, 48 hours, 72 hours, and 96 hours.
G93A-SOD1 transgenic mice (shortened to “SOD1 mice”) are mutant for superoxide dismutase 1 (SOD1) and are used as a disease model because of the phenotypic and pathologic resemblance to sporadic and familial human ALS. The SOD1 mice overexpress the superoxide dismutase, CCS, to develop an accelerated disease course that is associated with enhanced mitochondrial pathology and increased mitochondrial localization of mutant SOD1. The results of the fingolimod concentration studies were consistent with published reports for fingolimod in other tissues and models. Tissues analyzed included plasma (FIG. 1A) and spinal cord (FIG. 1B). Fingolimod treated animals were then divided into two groups using two separate doping regimens: • Low Dose Fingolimod Group: IP Load 0.44 mg/kg, Maintenance 0.32 mg/kg every 7 days (q7d), and • High Dose Fingolimod Group: IP Load 2.5 mg/kg, Maintenance 1.8 mg/kg q7d.

[2] = test system: CD8+ lymphocytes; test: FACS analysis of circulating CD8+ lymphocytes in whole blood of SOD1 mice; format: in vivo, mouse; settings: for CD8+ cells in whole blood: 4 hours after third dose, control approximately 5%
Protocol: FIG. 3A is a fluorescent activated cell sorting (FACS) analysis showing the reduction of CD8+ lymphocytes in the circulation of male SOD1 mice that results from fingolimod treatment. A high dose of fingolimod (IP Loading Dose 2.5 mg/kg, Maintenance Dose 1.8 mg/kg q7d), a low dose of fingolimod (IP Loading Dose 0.44 mg/kg, Maintenance Dose 0.32 mg/kg) and a vehicle control group were tested over 14 days. Tissues were harvested 4 hours after the third dose. This time point was selected to best characterize the behavior of lymphocytes when circulating levels of the drug were near peak.
The following dosage regimen was used to determine the dose dependent effects of fingolimod in SOD1 mice: • Cohorts: • 1) SOD1 Fingolimod Treated “High Dose” (Load 2.5 mg/kg, 1.8 mg/kg Oral q7d) • 4 hour post final dose harvest • 7 day post final dose harvest • 2) SOD1 Fingolimod Treated “Low Dose” (Load 0.44 mg/kg, 0.32 mg/kg Oral q7d) • 4 hour post final dose harvest • 7 day post final dose harvest • 3) SOD1 Vehicle Control • 4 hour post final dose harvest • 7 day post final dose harvest
The predicted plasma fingolimod load for both the high dose and the low dose regimes were determined, see FIGS. 2A and 2B. Tissues were harvested 4 hours after the third fingolimod dose. This time point was selected to best characterize the behavior of lymphocytes in animals treated with fingolimod when circulating levels of the drug are near peak concentration.

[3] = test system: G93A-SOD1 mice; test: Disease progression, onset and survival in the SOD1 ALS mouse model; format: in vivo; settings: vs untreated SOD1
Text: FIGS. 7A, 7B, 7C, and 7D are charts showing symptomatic neurological disease progression in untreated SOD1 mice and SOD1 fingolimod treated mice. FIGS. 7A and 7C show the results for SOD1 mice having a low number (14-20) of copies of the transgene. FIGS. 7B and 7D show the results for SOD1 mice having a high number (20-25) copies of the transgene. Neurological disease progression was defined as the average neurological score over time for male SOD1 mice. For each chart, the lower line represents the SOD1 fingolimod treated mice; the upper line (i.e., having lower probability at each age in days, Dage) represents the untreated SOD1 mice.
FIG. 8A is a chart comparing disease onset probability as assessed by the Cox Proportional Hazards model in untreated SOD1 and SOD1 fingolimod treated mice. The black right line represents the SOD1 fingolimod treated mice; the gray left line represents the untreated SOD1 mice.
FIG. 8B is a chart comparing survival as assessed by the Cox Proportional Hazards model in untreated SOD1 mice and SOD1 fingolimod treated mice for individual animals. The black right line represents the SOD1 fingolimod treated mice; the gray left line represents the untreated SOD1 mice.
FIG. 9A is a chart showing disease onset probability as calculated by the Weibull method versus time in untreated SOD1 mice and SOD1 fingolimod treated mice. The right line represents the SOD1 fingolimod treated mice; the left line represents the untreated SOD1 mice.
FIG. 9B is a chart showing survival as calculated by the Weibull method versus time in untreated SOD1 mice and SOD1 fingolimod treated mice. The right line represents the SOD1 fingolimod treated mice; the left line represents the untreated SOD1 mice.
To assess the impact of reducing T lymphocyte cell proliferation on disease progression in the SOD1 preclinical animal model, fingolimod was administered to SOD1 mice and parameters of disease progression were measured, including daily measurements of neurological severity score, as well as T lymphocyte cell proliferation.
Neurological scores for both hind legs were assessed daily for each mouse from 50 days of age. The neurological score employed a scale of 0 to 4 that was developed by observation at ALSTDI (Scott et al., 2008). […] Animals were assigned a score of 2 when the toes curled under at least twice during walking a distance of 12 inches, or any part of the foot was dragging along the cage bottom/table. Animals were assigned a score of 3 when they had rigid paralysis or minimal joint movement, or a foot was not being used for forward motion. Animals were assigned a score of 4 when they […] within 30 seconds after being laid on either side. At the point where at least one hind leg was scored as 2, food pellets were left on the cage bedding to permit easy access to food. If both hind legs were scored as 2, Nutra-Gel® (Bio-Serve #S4798) was provided as food in addition to food pellets placed on the cage bedding and a long sipper tube was placed on the water bottle.
Date and cause of death were recorded for each mouse. For humane reasons, animals were closely monitored and sacrificed as moribund prior to actual death using criteria for severe moribundity. To determine duration of survival reliably and humanely, the moribund state, defined as the inability of mice to right themselves 30 seconds after being placed on a side (a neurological score of 4) was used. The moribund mice were scored as “dead,” and were euthanized using carbon dioxide asphyxiation.
To determine the impact of reducing T lymphocyte cell proliferation on disease progression in the SOD1 preclinical animal model, a Weibull analysis was performed on the data from the animal study described in Examples 3-5.

[4] = test system: experimental autoimmune neuritis; settings: Zhang et al. 2008, cited from earlier work
[5] = whole blood, vs vehicle control

## CCCCCCCCc1ccc(CCC(N)(CO)CO)cc1 [fingolimod, 2-amino-2-(4-octylphenethyl)propane-1,3-diol]
[1]; plasma, read-out: plasma Cmax
  Cmax: 185 ng/mL
[1]; plasma, read-out: plasma half-life (converted)
  half-life: 31.4 h
[1]; spinal cord, read-out: spinal cord Cmax
  Cmax: 630 ng/mL
[1]; spinal cord, read-out: spinal cord half-life (converted)
  half-life: 89.2 h
[2]; SOD1 animals, high and low dose groups
  circulating CD8 positive cells in whole / peripheral blood (in words): fewer; also recorded: transiently depletes
[2]; high dose (load 2.5 mg/kg, 1.8 mg/kg q7d)
  CD8+ cells in whole blood: less than 2%
[2]; low dose (load 0.44 mg/kg, 0.32 mg/kg q7d)
  CD8+ cells in whole blood: less than 2%
[2]; [5]
  reduction in CD8+ cells: > 66%
  reduction in CD8+ cells (fold): over three-fold
[3]; SOD1 mice
  disease onset probability (Weibull method): reduced disease onset probability
  survival probability (Weibull method): increased survival probability
[3]; male SOD1 mice, high copy number (20-25 copies)
  neurological score over time: improvement
[3]; male SOD1 mice, low copy number (14-20 copies)
  neurological score over time: improvement
[3]; male SOD1 mice
  disease onset probability (Cox Proportional Hazards model): delayed onset of disease
  survival (Cox Proportional Hazards model): extended survival
[4]
  severity and duration of experimental autoimmune neuritis: reduced the severity and duration
[4]; if administrated with immunization
  paraparesis: suppress paraparesis
